From PubChem BioAssay (NCI)
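In this assay, cells in 96-well plates receive the compound at five concentrations for 48 hours. Endpoints are linearly interpolated between the surrounding concentrations. Abbreviation: GI50, concentration required for 50% inhibition of growth. Definition used: TGI = concentration required for complete inhibition of growth.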

Legend:
Assay in all cases: DTP human tumour cell line panel, 48 h
786-0 renal = test system: 786-0 renal
HCT-15 colon = test system: HCT-15 colon
HT29 colon = test system: HT29 colon
MCF7 breast = test system: MCF7 breast
NCI-H226 lung = test system: NCI-H226 lung
OVCAR-4 ovarian = test system: OVCAR-4 ovarian
SK-MEL-2 melanoma = test system: SK-MEL-2 melanoma
SN12C renal = test system: SN12C renal

Structure (SMILES) | GI50 (786-0 renal) | TGI (786-0 renal) | GI50 (HCT-15 colon) | TGI (HCT-15 colon) | GI50 (HT29 colon) | TGI (HT29 colon) | GI50 (MCF7 breast) | TGI (MCF7 breast) | GI50 (NCI-H226 lung) | TGI (NCI-H226 lung) | GI50 (OVCAR-4 ovarian) | TGI (OVCAR-4 ovarian) | GI50 (SK-MEL-2 melanoma) | TGI (SK-MEL-2 melanoma) | GI50 (SN12C renal) | TGI (SN12C renal)
COc1cc(CCNc2nc3cc(N)cc(N)c3nc2-c2ccccc2)cc(OC)c1 | 2 µM | 3.99 µM | 2.43 µM | 7.42 µM | 1.93 µM | 4.87 µM | 1.71 µM | 3.89 µM | 2.16 µM | 4.87 µM | 1.21 µM | 2.54 µM | 1.92 µM | 3.92 µM | 1.67 µM | 3.12 µM
N=C(N)c1ccc(-c2ccc(-c3ccc(Cl)c(Cl)c3)o2)nc1 | 1.99 µM | 3.83 µM | 1.77 µM | 3.53 µM |  |  |  |  | 15.4 µM | 49.9 µM |  |  |  |  | 1.74 µM | 3.52 µM
O=C(Nc1ccc(Cl)cc1F)c1cc(Cl)ccc1O | 1.09 µM | 7.03 µM | 0.519 µM |  | 3.2 µM | > 31.2 µM | 0.442 µM | 10.2 µM | 0.429 µM | 7.21 µM | 0.34 µM | > 100 µM | 0.338 µM | 1.72 µM | 0.345 µM | 3.95 µM
CC(=O)OC1CC(C)c2c(Cl)ncnc21 (configuration not stated) | > 100 µM | > 100 µM | > 100 µM | > 100 µM | > 100 µM | > 100 µM | > 100 µM | > 100 µM | > 100 µM | > 100 µM | > 100 µM | > 100 µM | > 100 µM | > 100 µM | > 100 µM | > 100 µM
COc1ccc2cc(C(=O)/C=C/c3ccco3)ccc2c1 | 10.4 µM | > 100 µM | 25.6 µM | > 100 µM | 42.5 µM | > 100 µM |  |  |  |  | 64.3 µM | > 100 µM | 21.6 µM | 59.1 µM | 31.3 µM | > 100 µM
NCC(=O)NC(CO)C(=O)O (configuration not stated) |  | > 100 µM |  | > 100 µM |  | > 100 µM |  | > 100 µM |  | > 100 µM |  | > 100 µM |  | > 100 µM |  | > 100 µM
Cc1cc2c(=O)c3ccccc3oc2c(C#N)c1C |  | > 100 µM |  |  |  | > 100 µM |  | > 100 µM |  |  |  | > 100 µM |  |  |  | 
Cc1ccc(C(CC(=O)c2ccccc2)C(C(=O)c2ccccc2)C(c2ccc(C)cc2)C2C(=O)NC(=S)NC2=O)cc1 (configuration not stated) | 26.2 µM | > 50 µM | 17 µM | > 50 µM | 28.1 µM | > 50 µM | 10.6 µM | > 50 µM | 14.9 µM | > 50 µM | > 50 µM | > 50 µM | 7.96 µM | > 50 µM | 25.1 µM | > 50 µM
Nc1nc(Cl)nc2c1ncn2C1CCC(COP(=O)(O)OP(=O)(O)OP(=O)(O)O)O1 (configuration not stated) |  | > 100 µM |  | 79.3 µM |  | 90.9 µM |  | > 100 µM |  | > 100 µM |  | 77.8 µM |  |  |  | > 100 µM
O=C1C(Cl)=C(Nc2cccc(O)c2)C(=O)N1c1ccc(Cl)cc1Cl | 32.8 µM | > 100 µM | 29.4 µM | > 100 µM | 35.1 µM | > 100 µM | 19.8 µM | 63.3 µM |  |  | 43.2 µM | > 100 µM | 35 µM | 72.5 µM | 17.1 µM | 35.9 µM
O=C(c1ccncc1)N1CCN(C2=NS(=O)(=O)c3ccccc3N2c2ccccc2)CC1 | 7.37 µM | 37.2 µM | > 100 µM | > 100 µM | 19 µM | 57.8 µM | 7.39 µM | > 100 µM | 17.1 µM | 42.4 µM | 30.6 µM | > 100 µM | 28 µM | 65.7 µM | 7.55 µM | > 100 µM
O=C1c2ccccc2CCC1(Br)Br | 2.21 µM | 4.55 µM | 0.743 µM | 2.24 µM | 2.28 µM | 4.43 µM | 1.56 µM | 3.89 µM | 1.98 µM | 4.56 µM | 1.48 µM | 2.97 µM | 3.13 µM | 11.3 µM | 2.18 µM | 5.37 µM
COc1ccc(CCN2COc3ccc4ccc(=O)oc4c3C2)cc1OC |  | > 100 µM |  | > 100 µM |  | > 100 µM |  | > 100 µM |  | > 100 µM |  | > 100 µM |  | > 100 µM |  | > 100 µM
Cc1cc(O)c(O)c(Oc2cc(C)cc(O)c2O)c1 |  | 55.5 µM |  | 29.9 µM |  | 41.1 µM |  | 29.3 µM |  | 75.1 µM |  | 28.8 µM |  | > 100 µM |  | 59.7 µM
CS(=O)(=O)N(CC(=O)O)Cc1ccccc1 |  | > 100 µM |  | > 100 µM |  | > 100 µM |  | > 100 µM |  | > 100 µM |  | > 100 µM |  | > 100 µM |  | > 100 µM
